# Test: Radiochemical purity (RCP) of 99mTc-depreotide kits with gentisic acid, reversed phase HPLC
# Type: physicochemical
# Conditions: when included in formulated kits
# Description: Lyophilized kit vials were prepared containing depreotide, GA, and other components as described in Table 1. Formulations were adjusted to pH 7.4 or 8.5 (as noted) prior to lyophilization.
smiles,measurement,value
"O=C(O)c1cc(O)ccc1O [gentisic acid, Gentisic acid]",effect on radiolabelling yield and stability of 99mTc-depreotide,decreases the radiolabelling yield and the stability

# From patent publication US6989138B2, “Stabilization of radiopharmaceutical compositions using hydrophilic thioethers and hydrophilic 6-hydroxy chromans” (Diatide, Inc., priority 2000, dated 2006)
